Measured values from patent US20240358721A1, “GASDERMIN-D INHIBITORS AND USES THEREOF FOR TREATING PULMONARY VASO-OCCLUSION” (UNIVERSITY OF PITTSBURGH-OF THE COMMONWEALTH SYSTEM OF …, priority 2021, published 2024).
“Also recorded” adds a separate entry of the source.

Columns and labels:
SCD-Selp−/− mice [1] = experiment: cNETs in platelet-poor plasma by Imaging Flow Cytometry, SCD-Selp−/− mice; assay type: in vivo, mouse; conditions: IV 10 μmole/kg oxy-Hb with 10 mg/kg inhibitor vs oxy-Hb alone
Experimental: (FIG. 5A) Experimental scheme: SCD or SCD-Selp^−/− mice were IV administered 10 μmole/kg oxy-Hb (10 oxy-Hb) without or with 10 mg/kg GSDMD inhibitors LDC75591 or Disulfiram. In FIGS. 5C-5D, venous blood was processed to generate PPP and cNETs detected in PPP using Imaging Flow Cytometry. Imaging Flow Cytometry data was quantified to estimate concentration of cNETs (#cNETs/μl of plasma). In FIGS. 5B, and 5E-5F, quantitative fluorescence intravital lung microscopy (qFILM) was used to detect arrival of circulating NETs (cNETs) within the lung microcirculation. Number of cNETs entering per FOV over a 1-minute duration (#cNETs/FOV/min) were quantified. In FIGS. 5G-5J, qFILM was used to assess the absence or presence of pulmonary vaso-occlusion using the experimental strategy described in FIG. 1A. Pulmonary vaso-occlusions (PVOs) were compared between treatment groups using following two parameters: Number of PVOs per Field of View (#PVOs/FOV) and number of large PVOs (with area>1000 μm^2) per FOV. (FIG. 5B) #cNETs/FOV/min in SCD mice IV administered 10 oxy-Hb were not different from SCD-Selp^−/− mice IV administered 10 oxy-Hb. SCD IV Oxy-Hb (n=4 mice; 44 FOVs). SCD-Selp^−/− IV oxy-Hb (n=5 mice; 71 FOVs). (FIG. 5C) Plasma concentration of cNETs was not different between SCD and SCD-Selp^−/− mice (n=4 mice per group) IV administered 10 oxy-Hb. […]

SCD-Selp−/− mice [2] = experiment: qFILM assessment of P-selectin-independent pulmonary vaso-occlusion in SCD-Selp−/− mice IV administered oxy-Hb; assay type: in vivo, mouse; conditions: IV 10 μmole/kg oxy-Hb with 10 mg/kg inhibitor vs oxy-Hb alone, 10 mg/kg
From the text: Quantitative fluorescence intravital lung microscopy (qFILM) was used to assess the absence or presence of platelet-neutrophil aggregate mediated pulmonary vaso-occlusion. Pulmonary microcirculation (pseudo-colored purple), neutrophils (red) and platelets (pseudo-colored green) were labeled in vivo by IV administration of FITC dextran, AF546-anti-Ly6G Ab and V450-anti-CD49b Ab, respectively. […] White arrows denote the direction of blood flow within the pulmonary arterioles. Alveoli are marked with asterisks. Scale bars 20 μm. The diameter of pulmonary arteriole in B-E is ˜22 μm, 32 μm, 31.5 μm, and 31 μm, respectively. […] Refer Online Data Supplement for details. […] The data for mice with SCD IV administered 10 oxy-Hb (n=5 mice; 75 FOVs) are included as black bars in FIGS. 1N and 1O for relative comparison. qFILM FOV size ˜65 536 μm^2. Data represent mean ±SE and are compared using Student t test. *P<0.05 (FIG. 1P) Schematic showing the main findings of the study. The sterile inflammatory milieu (DAMPs, IFN-I signaling, and ROS) in SCD promotes caspase-4 (humans) or caspase-11 (mouse)-dependent cleavage of neutrophil GSDMD into the active form GSDMD-NT, leading to the shedding of NETs in the liver microcirculation. Once shed, these NETs are carried by the blood as cNETs to the lung, where they promote neutrophil-platelet aggregation in the pulmonary arterioles, leading to PVO and lung injury (acute chest syndrome).
SCD-Selp^−/− mice were IV administered 10 μmole/kg oxy-Hb (10 oxy-Hb) without or with 10 mg/kg GSDMD inhibitor (Disulfiram). Quantitative fluorescence intravital lung microscopy (qFILM) was used to assess the absence or presence of pulmonary vasoocclusion using the same experimental scheme described in FIG. 1A. Pulmonary vasoocclusions (PVOs) were compared between treatment groups using following two parameters: Number of PVOs per Field of View (#PVOs/FOV) and number of large PVOs (with area>1000 μm^2) per FOV. […] The data for SCD mice IV administered 10 oxy-Hb (n=5 mice; 75 FOVs) is included as black bars in FIGS. 4A and 4B for relative comparison. FOV size˜65,536 μm^2. […]
(FIG. 5A) Experimental scheme: SCD or SCD-Selp^−/− mice were IV administered 10 μmole/kg oxy-Hb (10 oxy-Hb) without or with 10 mg/kg GSDMD inhibitors LDC75591 or Disulfiram. In FIGS. 5C-5D, venous blood was processed to generate PPP and cNETs detected in PPP using Imaging Flow Cytometry. Imaging Flow Cytometry data was quantified to estimate concentration of cNETs (#cNETs/μl of plasma). In FIGS. 5B, and 5E-5F, quantitative fluorescence intravital lung microscopy (qFILM) was used to detect arrival of circulating NETs (cNETs) within the lung microcirculation. Number of cNETs entering per FOV over a 1-minute duration (#cNETs/FOV/min) were quantified. […]

COc1ccccc1-c1cc2n(n1)Cc1ccc(NC(C)=O)cc1OC2 [LDC7559]
Plasma concentration of cNETs (#cNETs/μl of plasma) (SCD-Selp−/− mice [1]): significantly less | Number of PVOs per Field of View (#PVOs/FOV) (SCD-Selp−/− mice [2]): significantly reduced; also recorded: threefold | number of large PVOs (with area>1000 μm^2) per FOV (SCD-Selp−/− mice [2]): absent; also recorded: absence
